Experimental data from PubChem BioAssay (NCI).
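Following 48 hours of exposure in 96-well plates, responses at five concentrations were used to interpolate endpoints linearly. TGI: total growth inhibition.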

Tests used:
Experiment in all cases: NCI-60 cell line screen, 48 h
NCI-H522 lung = tested on: NCI-H522 lung
U251 CNS = tested on: U251 CNS
SK-OV-3 ovarian = tested on: SK-OV-3 ovarian
OVCAR-4 ovarian = tested on: OVCAR-4 ovarian
TK-10 renal = tested on: TK-10 renal
SNB-78 CNS = tested on: SNB-78 CNS
HOP-18 NSCLC = tested on: HOP-18 NSCLC
HOP-92 NSCLC = tested on: HOP-92 NSCLC
HOP-62 NSCLC = tested on: HOP-62 NSCLC
ACHN renal = tested on: ACHN renal
UACC-257 melanoma = tested on: UACC-257 melanoma
HCT-116 colon = tested on: HCT-116 colon
DMS 114 small cell lung = tested on: DMS 114 small cell lung
UACC-62 melanoma = tested on: UACC-62 melanoma
SR leukemia = tested on: SR leukemia
M19-MEL melanoma = tested on: M19-MEL melanoma
SF-539 CNS = tested on: SF-539 CNS
HCT-15 colon = tested on: HCT-15 colon
SK-MEL-28 melanoma = tested on: SK-MEL-28 melanoma
SK-MEL-2 melanoma = tested on: SK-MEL-2 melanoma
SN12C renal = tested on: SN12C renal
RPMI-8226 leukemia = tested on: RPMI-8226 leukemia
HT29 colon = tested on: HT29 colon
DMS 273 small cell lung = tested on: DMS 273 small cell lung
K-562 leukemia = tested on: K-562 leukemia
MOLT-4 leukemia = tested on: MOLT-4 leukemia
LXFL 529 NSCLC = tested on: LXFL 529 NSCLC
SF-295 CNS = tested on: SF-295 CNS
OVCAR-8 ovarian = tested on: OVCAR-8 ovarian
UO-31 renal = tested on: UO-31 renal
A549 NSCLC = tested on: A549 NSCLC
CAKI-1 renal = tested on: CAKI-1 renal
DLD-1 colon = tested on: DLD-1 colon
786-0 renal = tested on: 786-0 renal
NCI-H23 lung = tested on: NCI-H23 lung
CCRF-CEM leukemia = tested on: CCRF-CEM leukemia
KM20L2 colon = tested on: KM20L2 colon
LOX IMVI melanoma = tested on: LOX IMVI melanoma
MALME-3M melanoma = tested on: MALME-3M melanoma
SK-MEL-5 melanoma = tested on: SK-MEL-5 melanoma
M14 melanoma = tested on: M14 melanoma
COLO 205 colon = tested on: COLO 205 colon
NCI-H460 lung = tested on: NCI-H460 lung
RXF 393 renal = tested on: RXF 393 renal
SW-620 colon = tested on: SW-620 colon
SNB-75 CNS = tested on: SNB-75 CNS
OVCAR-3 ovarian = tested on: OVCAR-3 ovarian
IGROV1 ovarian = tested on: IGROV1 ovarian
SF-268 CNS = tested on: SF-268 CNS
KM12 colon = tested on: KM12 colon
NCI-H226 lung = tested on: NCI-H226 lung
OVCAR-5 ovarian = tested on: OVCAR-5 ovarian
HL-60(TB) leukemia = tested on: HL-60(TB) leukemia
XF 498 CNS = tested on: XF 498 CNS
SNB-19 CNS = tested on: SNB-19 CNS
HCC-2998 colon = tested on: HCC-2998 colon
EKVX NSCLC = tested on: EKVX NSCLC

**Q.** With `Cc1cc(=O)[nH]c(NNC(C#N)c2ccco2)n1` (stereo not given) as the compound, how does the TGI (NCI-H522 lung) read?
**A.** > 100 µM

**Q.** What about the TGI (U251 CNS) of the same compound?
**A.** > 100 µM

**Q.** What about the TGI (SK-OV-3 ovarian) of the same compound?
**A.** > 100 µM

**Q.** And the TGI (OVCAR-4 ovarian)?
**A.** > 100 µM

**Q.** What about the TGI (TK-10 renal) of the same compound?
**A.** > 100 µM

**Q.** And the TGI (SNB-78 CNS)?
**A.** > 100 µM

**Q.** What about the TGI (HOP-18 NSCLC) of the same compound?
**A.** > 100 µM

**Q.** And the TGI (HOP-92 NSCLC)?
**A.** > 100 µM

**Q.** And the TGI (HOP-62 NSCLC)?
**A.** > 100 µM

**Q.** And the TGI (ACHN renal)?
**A.** > 100 µM

**Q.** What about the TGI (UACC-257 melanoma) of the same compound?
**A.** > 100 µM

**Q.** And the TGI (HCT-116 colon)?
**A.** > 100 µM

**Q.** And the TGI (DMS 114 small cell lung)?
**A.** > 100 µM

**Q.** And the TGI (UACC-62 melanoma)?
**A.** > 100 µM

**Q.** And the TGI (SR leukemia)?
**A.** > 100 µM

**Q.** What about the TGI (M19-MEL melanoma) of the same compound?
**A.** > 100 µM

**Q.** What about the TGI (SF-539 CNS) of the same compound?
**A.** > 100 µM

**Q.** What about the TGI (HCT-15 colon) of the same compound?
**A.** > 100 µM

**Q.** And the TGI (SK-MEL-28 melanoma)?
**A.** > 100 µM

**Q.** What about the TGI (SK-MEL-2 melanoma) of the same compound?
**A.** > 100 µM

**Q.** What about the TGI (SN12C renal) of the same compound?
**A.** > 100 µM

**Q.** What about the TGI (RPMI-8226 leukemia) of the same compound?
**A.** > 100 µM

**Q.** What about the TGI (HT29 colon) of the same compound?
**A.** > 100 µM

**Q.** And the TGI (DMS 273 small cell lung)?
**A.** > 100 µM

**Q.** And the TGI (K-562 leukemia)?
**A.** > 100 µM

**Q.** And the TGI (MOLT-4 leukemia)?
**A.** > 100 µM

**Q.** And the TGI (LXFL 529 NSCLC)?
**A.** > 100 µM

**Q.** What about the TGI (SF-295 CNS) of the same compound?
**A.** > 100 µM

**Q.** What about the TGI (OVCAR-8 ovarian) of the same compound?
**A.** > 100 µM

**Q.** And the TGI (UO-31 renal)?
**A.** > 100 µM

**Q.** And the TGI (A549 NSCLC)?
**A.** > 100 µM

**Q.** And the TGI (CAKI-1 renal)?
**A.** > 100 µM

**Q.** What about the TGI (DLD-1 colon) of the same compound?
**A.** > 100 µM

**Q.** And the TGI (786-0 renal)?
**A.** > 100 µM

**Q.** And the TGI (NCI-H23 lung)?
**A.** > 100 µM

**Q.** And the TGI (CCRF-CEM leukemia)?
**A.** > 100 µM

**Q.** And the TGI (KM20L2 colon)?
**A.** > 100 µM

**Q.** And the TGI (LOX IMVI melanoma)?
**A.** > 100 µM

**Q.** And the TGI (MALME-3M melanoma)?
**A.** > 100 µM

**Q.** What about the TGI (SK-MEL-5 melanoma) of the same compound?
**A.** > 100 µM

**Q.** And the TGI (M14 melanoma)?
**A.** > 100 µM

**Q.** And the TGI (COLO 205 colon)?
**A.** > 100 µM

**Q.** And the TGI (NCI-H460 lung)?
**A.** > 100 µM

**Q.** And the TGI (RXF 393 renal)?
**A.** > 100 µM

**Q.** What about the TGI (SW-620 colon) of the same compound?
**A.** > 100 µM

**Q.** What about the TGI (SNB-75 CNS) of the same compound?
**A.** > 100 µM

**Q.** And the TGI (OVCAR-3 ovarian)?
**A.** > 100 µM

**Q.** What about the TGI (IGROV1 ovarian) of the same compound?
**A.** > 100 µM

**Q.** And the TGI (SF-268 CNS)?
**A.** > 100 µM

**Q.** What about the TGI (KM12 colon) of the same compound?
**A.** > 100 µM

**Q.** What about the TGI (NCI-H226 lung) of the same compound?
**A.** > 100 µM

**Q.** What about the TGI (OVCAR-5 ovarian) of the same compound?
**A.** > 100 µM

**Q.** What about the TGI (HL-60(TB) leukemia) of the same compound?
**A.** > 100 µM

**Q.** What does the source list for `CCOC(=O)c1cc(OC(=O)CC)c2c(OC)ccc(OC)c2c1`?
**A.** TGI (XF 498 CNS): > 100 µM; TGI (NCI-H522 lung): > 100 µM; TGI (U251 CNS): > 100 µM; TGI (SK-OV-3 ovarian): 91.6 µM; TGI (OVCAR-4 ovarian): > 100 µM; TGI (TK-10 renal): > 100 µM; TGI (HOP-18 NSCLC): > 100 µM; TGI (SNB-19 CNS): > 100 µM; TGI (ACHN renal): > 100 µM; TGI (HCT-116 colon): > 100 µM; TGI (DMS 114 small cell lung): > 100 µM; TGI (UACC-62 melanoma): > 100 µM; TGI (SR leukemia): > 100 µM; TGI (M19-MEL melanoma): > 100 µM; TGI (SF-539 CNS): > 100 µM; TGI (HCT-15 colon): 96.6 µM; TGI (SK-MEL-28 melanoma): > 100 µM; TGI (SK-MEL-2 melanoma): > 100 µM; TGI (SN12C renal): > 100 µM; TGI (RPMI-8226 leukemia): > 100 µM; TGI (DMS 273 small cell lung): > 100 µM; TGI (K-562 leukemia): > 100 µM; TGI (MOLT-4 leukemia): > 100 µM; TGI (LXFL 529 NSCLC): > 100 µM; TGI (HCC-2998 colon): > 100 µM; TGI (UO-31 renal): > 100 µM; TGI (A549 NSCLC): > 100 µM; TGI (CAKI-1 renal): > 100 µM; TGI (DLD-1 colon): > 100 µM; TGI (786-0 renal): > 100 µM; TGI (NCI-H23 lung): > 100 µM; TGI (MALME-3M melanoma): > 100 µM; TGI (SK-MEL-5 melanoma): > 100 µM; TGI (COLO 205 colon): > 100 µM; TGI (NCI-H460 lung): > 100 µM; TGI (RXF 393 renal): 69.7 µM; TGI (EKVX NSCLC): > 100 µM; TGI (SW-620 colon): > 100 µM; TGI (SNB-75 CNS): 99 µM; TGI (IGROV1 ovarian): > 100 µM; TGI (KM12 colon): > 100 µM; TGI (OVCAR-5 ovarian): > 100 µM
